Literature values as cited in patent US20090142410A1, “Nutritional composition and method for increasing creatine uptake and retention in skeletal muscle, increasing muscle mass and strength, increasing exercise capacity and for aiding recovery following exercise” (priority 2006, published 2009).

Settings: concomitant ingestion with carbohydrates

For `CN(CC(=O)O)C(=N)N` [Creatine, N-methyl-N-guanyl Glycine], the “improvement of Creatine retention” value is given as “up to 60%”.
